The record followed here is patent US6306911A, “Substituted amino acids as neutral sphingomyelinase inhibitors” (Ortho-McNeil Pharmaceutical, Inc., priority 2000, dated 2001).

In this experiment the test system is neutral sphingomyelinase. Nature of the experiment: Sphingomyelinase Assay: neutral sphingomyelinase inhibition, release of 14C-phosphocholine from 14C-sphingomyelin, U937 cell lysate. The experiment is classed as biochemical. To be noted: for percentage of enzyme inhibition: highest concentration tested (100 uM), IC50 not determined, U937 cell lysate, 1 hour at 37; for pIC50: U937 cell lysate as enzyme, 14C-sphingomyelin substrate, pH 7.5, 1 hour at 37. As for the experimental part: Neutral sphingomyelinase is an enzyme that cleaves sphingomyelin to yield ceramide and phosphocholine. […] After cleavage, an extraction separates the labeled, water-soluble phosphocholine from the intact substrate and the ceramide.
Cell Iysates are made by nitrogen cavitation of harvested cells in Buffer A (20 mM Tris, pH 7.4, 250 mM sucrose, 10 mM EGTA, 10 ug/ml leupeptin, 1 mM PMSF, […]). Lysates are flash frozen and stored at -40 C.
Substrate Preparation: N-methyl-^14 C-sphingomyelin (specific activity 50 mCi/mM) and phosphatidylinositol are evaporated under a stream of nitrogen and resuspended at an equimolar concentration of 0.1 mM in water with 0.5% Triton X-100. The solution is vortexed for 30 minutes and then sonicated for 30 minutes.
Sphingomyelinase Assay: The reaction mixture contains 25 ul 2X Tris Mg buffer (200 mM Tris-HCl, pH 7.5. 160 mM MgCl), 10 ul ^14 C-sphingomyelin substrate, 10 ul lysate (enzyme) and 5 ul test compound or vehicle for a final volume of 50 l. The assays are carried out in 1.5 ml microcentriftige tubes and are incubated for 1 hour at 37. The reaction is stopped with 30 l of water and 175 l chloroform/methanol (2:1, v:v). The tubes arc vortexed vigorously, centrifuged for 5 minutes in a microfuge at maximum speed and 50 l of the upper, aqueous phase is counted in a liquid scintillation counter. Alternatively, the assay may be set up in wells of a 96-well PCR plate in identical proporations to a total volume of 50 l. Then the plates are incubated at 37 C incubator for 1 hour. H2 O (30 l) is added to all plates and the plates are again incubated for 1 hour. Chloroform-methanol (2:1) is added in a volume of 175 l followed by vigorous mixing. The plates are sealed with adhesive covers and centrifuged at 3000 rpm for 10 minutes at 5 C. The plates are uncovered and 50 µl of upper, aqueous phase is transferred to a Flashplate™(NEN) scintillation proximity assay plate. The Flashplates are dried overnight, sealed, and counted using a Topcount scintillation counter.
Compounds that are antagonists of neutral sphingomyelinase are reported as a positive value for inhibition in Table 4.

Structures are written as SMILES. pIC50: −log10 of the molar value.

`CC(C(=O)O)N(CCc1cccc2ccccc12)CCc1cccc2ccccc12` (centres unmarked) [Compound 25]: the “percentage of enzyme inhibition” value is on record as < 5%.
The same measure, in the same setting: for `CC(C(=O)OC(C)(C)C)N(CC=Cc1ccnc2ccccc12)CC=Cc1ccnc2ccccc12` (centres unmarked) [Compound 24] the value was < 5%.
Consider `CC(C(=O)OC(C)(C)C)[N+](C)(CC=Cc1cccc2ccccc12)CC=Cc1cccc2ccccc12` (centres unmarked) [Compound 15], for which the pIC50 was 4.55.
As to `CC(C(=O)O)N(Cc1cccc2ccccc12)Cc1cccc2ccccc12` (centres unmarked) [Compound 20], the “percentage of enzyme inhibition” value is < 5%.
For `COc1ccc(C#CCN(CC#Cc2ccc(OC)cc2)[C@@H](C)C(=O)O)cc1` [Compound 19], the “percentage of enzyme inhibition” value was 27%.
The same measure, in the same setting: for `C[C@@H](C(=O)O)N(C/C=C/c1ccnc2ccccc12)C/C=C/c1ccnc2ccccc12` [Compound 13] the value was < 5%; for `C[N+](C/C=C/c1cccc2ccccc12)(C/C=C/c1cccc2ccccc12)[C@@H](CO)C(=O)O` [Compound 16], 24%; for `O=C(O)C(CO)N(CCc1cccc2ccccc12)CCc1cccc2ccccc12` (centres unmarked) [Compound 22], < 5%.
As to `C[C@@H](C(=O)O)N(CC#Cc1cccc2ccccc12)CC#Cc1cccc2ccccc12` [Compound 17, Alanine, N,N-Bis[3-(1-naphthalenyl)-2-propynyl]--], the pIC50 was 5.00.
`COC(=O)[C@H](CO)[N+](C)(C/C=C/c1cccc2ccccc12)C/C=C/c1cccc2ccccc12` [Compound 14] gave a pIC50 of 4.72.
As for `O=C(O)C(CO)N(CCCc1cccc2ccccc12)CCCc1cccc2ccccc12` (centres unmarked) [Compound 23], the pIC50 is 4.05. This pIC50 lies 0.67 log units lower than the previous one.
For `O=C(O)C(CO)N(Cc1cccc2ccccc12)Cc1cccc2ccccc12` (centres unmarked) [Compound 21], the “percentage of enzyme inhibition” value was < 5%.
As for `C[C@@H](O)[C@@H](C(=O)O)N(C/C=C/c1cccc2ccccc12)C/C=C/c1cccc2ccccc12` [Compound 10], the “percentage of enzyme inhibition” value is 21%.
The same measure, in the same setting: for `O=C(O)C(CO)N(CC#Cc1cccc2ccccc12)CC#Cc1cccc2ccccc12` (centres unmarked) [Compound 18] the value was < 5%.

Usually pIC50 stands for −log10 of the IC50, conventionally taken in molar units. Read a high pIC50 as a low IC50.
